Measured values as given in patent publication US20230399313A1, “BIOLOGICAL ACTIVITIES OF 5-(2-(4-(4-FLUORO-2-METHYL-1H-INDOL-5-YLOXY)-6-METHOXYQUINOLIN-7-YLOXY)ETHYL)-5-AZASPIRO[2.4]-HEPTAN-7-OL CRYSTALLINE, PHOSPHORIC ACID SALT AND ITS ENANTIOMERS” (Advenchen Pharmaceuticals, LLC, priority 2022, published 2023).

Columns and labels:
[1] = tested on: murine colorectal CT26 cell line; experiment: Murine colorectal CT26 model, combination with anti-mouse PD-1 antibody; type: in vivo, mice; conditions: for Mean tumor volume D0: D0 (first drug administration time, baseline); for Mean tumor volume D0 / Mean tumor volume D17 / T/C D17: CT26 mice
[2] = tested on: K562; experiment: In vitro MTT (proliferation) assay; type: cell-based; conditions: Homo sapiens, Blood
[3] = tested on: breast cancer cell line MCF7; experiment: Combination therapy MTT assay; type: cell-based, human; conditions: MCF7, combined with aromatase inhibitors Anatrozole and Letrozole, 72 h
Experimental: (§1) Compound A-Xln combination therapy MTT assay results were investigated. 100 μl of cell suspension with a concentration of 5×10^4 cells/ml was added to each well of a 96-well plate, and place in a 37° C., 5% CO2 incubator. After 24 h, Compound A-Xln sample solution was added according to Table 13, 10 μl/well for double-duplicate wells. After 72 hours at 37° C. and 5% CO2 incubation, 20 μl of 5 mg/ml MTT solution was added to each well, then 100 µl/well of dissolving solution was added after 4 hours. The samples were put in an incubator, and a full-wavelength multifunctional enzyme label machine was used after dissolving. The OD value at 570 nm was measured.

[4] = tested on: breast cancer cell line BT474; experiment: Combination therapy MTT assay; type: cell-based, human; conditions: BT474, combined with aromatase inhibitors Anatrozole and Letrozole, 72 h
Experimental: as §1

[5] = Stability of amorphous and crystalline form API at 60° C. (HPLC related substances); type: physicochemical
Experimental: The samples of amorphous and crystalline form API of Compound A were placed in clean containers and the environmental temperature was controlled at 60° C. The purity of amorphous (Compound A-Amp) and crystalline form (Compound A-Xln) of Compound A were tested at Day 0, Day 10 and Day 30. Samples of amorphous and crystalline form APIs were measured, and the appropriate amount of diluent was added to dissolve with sonication. The concentration was controlled at 0.2 mg/ml and the purification was determined by HPLC with UV detector at 230 nm. Results were listed in the table as follows and the fitted curve is in Drawing Sections as FIG. 6.

[6] = tested on: Molt-4; experiment: In vitro MTT (proliferation) assay; type: cell-based; conditions: Homo sapiens, Blood
[7] = tested on: SKBR3; experiment: In vitro MTT (proliferation) assay; type: cell-based; conditions: Homo sapiens, SK-BR-3, Breast
[8] = target: PDGFRβ(h) (Homo sapiens, UniProt P09619); experiment: Kinase inhibition; type: biochemical
Chain of PDGFRβ(h) (P09619 33-1106): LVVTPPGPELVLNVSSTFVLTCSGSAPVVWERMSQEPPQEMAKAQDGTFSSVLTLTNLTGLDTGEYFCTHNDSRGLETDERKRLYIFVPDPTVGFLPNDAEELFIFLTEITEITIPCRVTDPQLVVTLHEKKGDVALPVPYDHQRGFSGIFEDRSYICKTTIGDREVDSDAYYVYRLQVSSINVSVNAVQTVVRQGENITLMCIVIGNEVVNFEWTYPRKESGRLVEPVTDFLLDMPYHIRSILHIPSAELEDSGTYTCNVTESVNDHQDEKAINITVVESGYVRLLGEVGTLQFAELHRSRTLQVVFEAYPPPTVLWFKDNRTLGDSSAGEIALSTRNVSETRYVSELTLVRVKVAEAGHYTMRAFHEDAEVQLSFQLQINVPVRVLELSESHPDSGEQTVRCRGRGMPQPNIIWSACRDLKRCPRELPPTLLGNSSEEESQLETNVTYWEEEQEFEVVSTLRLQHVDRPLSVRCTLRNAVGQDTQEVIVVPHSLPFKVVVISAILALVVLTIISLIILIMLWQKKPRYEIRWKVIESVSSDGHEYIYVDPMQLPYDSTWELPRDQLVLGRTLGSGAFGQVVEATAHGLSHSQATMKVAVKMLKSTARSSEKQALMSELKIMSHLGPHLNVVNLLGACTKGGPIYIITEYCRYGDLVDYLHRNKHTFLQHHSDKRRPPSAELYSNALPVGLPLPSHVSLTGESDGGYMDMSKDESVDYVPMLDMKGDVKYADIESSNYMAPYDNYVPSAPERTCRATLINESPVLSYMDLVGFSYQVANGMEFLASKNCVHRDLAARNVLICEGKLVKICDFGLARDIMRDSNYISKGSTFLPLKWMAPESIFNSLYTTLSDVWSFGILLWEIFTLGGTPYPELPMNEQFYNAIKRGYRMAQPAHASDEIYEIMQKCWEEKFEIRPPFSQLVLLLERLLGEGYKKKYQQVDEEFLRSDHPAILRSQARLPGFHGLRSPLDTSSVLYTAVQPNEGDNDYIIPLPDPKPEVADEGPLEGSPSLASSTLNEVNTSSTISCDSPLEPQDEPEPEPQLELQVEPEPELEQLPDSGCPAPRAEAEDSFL
Excerpt: (§2) […]. In vitro tyrosine kinase inhibition activities can be measured via commercial resources. Some of these tests can also be contracted with Eurofin or Reaction Biology for screening.
(§3) For the kinase inhibition tests, receptor tyrosine kinases are selected from FGFR1(h), FGFR2(h), FGFR3(h), Flt1(h) (VEGFr1), Flt4(h) (VEGFr3), KDR(h) (VEGFr2), Aurora-B, PDGFRα(h) and PDGFRβ(h). […] […].

[9] = target: PDGFRα(h) (Homo sapiens, UniProt P16234); experiment: Kinase inhibition; type: biochemical
Chain of PDGFRα(h) (P16234 24-1089): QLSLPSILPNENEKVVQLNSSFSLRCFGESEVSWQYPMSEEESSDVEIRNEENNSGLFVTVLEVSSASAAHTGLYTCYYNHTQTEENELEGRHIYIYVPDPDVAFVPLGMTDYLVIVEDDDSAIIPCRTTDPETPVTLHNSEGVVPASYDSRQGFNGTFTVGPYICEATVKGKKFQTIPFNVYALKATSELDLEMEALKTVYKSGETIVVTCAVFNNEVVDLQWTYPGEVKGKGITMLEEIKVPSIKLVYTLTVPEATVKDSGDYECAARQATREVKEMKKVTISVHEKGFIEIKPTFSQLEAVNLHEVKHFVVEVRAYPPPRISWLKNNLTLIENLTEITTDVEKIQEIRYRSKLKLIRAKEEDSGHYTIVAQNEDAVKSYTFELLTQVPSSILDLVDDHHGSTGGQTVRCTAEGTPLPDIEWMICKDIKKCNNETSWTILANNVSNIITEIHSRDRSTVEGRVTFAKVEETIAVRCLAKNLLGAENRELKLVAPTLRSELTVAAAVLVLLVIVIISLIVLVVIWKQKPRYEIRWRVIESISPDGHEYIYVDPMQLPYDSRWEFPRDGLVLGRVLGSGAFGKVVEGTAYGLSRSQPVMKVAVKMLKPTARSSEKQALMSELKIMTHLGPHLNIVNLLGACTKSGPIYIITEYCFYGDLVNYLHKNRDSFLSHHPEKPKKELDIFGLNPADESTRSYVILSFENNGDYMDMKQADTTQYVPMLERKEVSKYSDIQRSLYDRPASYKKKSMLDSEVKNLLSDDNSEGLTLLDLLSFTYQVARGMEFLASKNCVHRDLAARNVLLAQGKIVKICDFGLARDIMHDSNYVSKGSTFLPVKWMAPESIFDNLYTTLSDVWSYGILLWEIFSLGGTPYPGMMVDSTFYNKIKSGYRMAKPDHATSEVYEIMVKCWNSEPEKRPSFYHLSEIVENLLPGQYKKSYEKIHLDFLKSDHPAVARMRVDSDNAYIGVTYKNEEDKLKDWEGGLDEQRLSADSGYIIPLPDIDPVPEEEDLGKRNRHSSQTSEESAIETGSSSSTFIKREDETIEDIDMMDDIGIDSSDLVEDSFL
Excerpt: as §2, §3

[10] = target: KDR(h) (VEGFr2) (Homo sapiens, UniProt P35968); experiment: Kinase inhibition; type: biochemical
Chain of KDR(h) (VEGFr2) (P35968 20-1356): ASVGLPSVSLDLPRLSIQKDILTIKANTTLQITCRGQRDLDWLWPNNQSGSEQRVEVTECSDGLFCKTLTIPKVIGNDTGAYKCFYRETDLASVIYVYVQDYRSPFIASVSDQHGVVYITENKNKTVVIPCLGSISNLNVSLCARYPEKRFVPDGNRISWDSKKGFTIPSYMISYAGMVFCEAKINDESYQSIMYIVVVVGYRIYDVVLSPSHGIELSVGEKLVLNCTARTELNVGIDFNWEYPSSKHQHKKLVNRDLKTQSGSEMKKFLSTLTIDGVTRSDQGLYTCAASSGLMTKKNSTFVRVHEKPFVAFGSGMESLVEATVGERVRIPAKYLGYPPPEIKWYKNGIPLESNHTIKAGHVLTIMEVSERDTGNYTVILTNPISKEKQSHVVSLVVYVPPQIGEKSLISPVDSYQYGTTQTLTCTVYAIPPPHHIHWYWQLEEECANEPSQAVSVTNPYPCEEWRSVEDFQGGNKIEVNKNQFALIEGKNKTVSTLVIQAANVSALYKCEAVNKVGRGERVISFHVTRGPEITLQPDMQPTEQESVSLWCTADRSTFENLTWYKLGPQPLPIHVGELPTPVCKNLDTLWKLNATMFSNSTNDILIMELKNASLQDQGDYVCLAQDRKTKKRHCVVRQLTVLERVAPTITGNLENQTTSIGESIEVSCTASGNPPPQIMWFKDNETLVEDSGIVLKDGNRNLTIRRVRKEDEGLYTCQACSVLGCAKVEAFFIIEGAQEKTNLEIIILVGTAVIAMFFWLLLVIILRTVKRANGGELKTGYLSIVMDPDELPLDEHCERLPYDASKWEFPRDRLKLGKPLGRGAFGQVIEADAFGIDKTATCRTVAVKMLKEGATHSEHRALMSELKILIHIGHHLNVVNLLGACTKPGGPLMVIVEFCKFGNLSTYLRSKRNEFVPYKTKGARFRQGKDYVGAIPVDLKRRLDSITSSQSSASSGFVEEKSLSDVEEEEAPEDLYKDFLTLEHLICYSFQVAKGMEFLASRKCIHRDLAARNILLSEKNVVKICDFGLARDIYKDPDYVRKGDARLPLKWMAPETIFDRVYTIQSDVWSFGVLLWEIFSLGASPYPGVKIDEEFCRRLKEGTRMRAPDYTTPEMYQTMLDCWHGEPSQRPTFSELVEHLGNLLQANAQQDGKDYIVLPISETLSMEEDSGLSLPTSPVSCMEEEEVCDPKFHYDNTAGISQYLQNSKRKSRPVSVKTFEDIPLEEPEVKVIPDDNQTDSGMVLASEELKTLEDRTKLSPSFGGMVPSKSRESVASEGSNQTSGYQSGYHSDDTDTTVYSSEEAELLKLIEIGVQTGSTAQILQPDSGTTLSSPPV
Excerpt: as §2
For the kinase inhibition tests, receptor tyrosine kinases are selected from FGFR1(h), FGFR2(h), FGFR3(h), Flt1(h) (VEGFr1), Flt4(h) (VEGFr3), KDR(h) (VEGFr2), Aurora-B, PDGFRα(h) and PDGFRβ(h). […]. […]

[11] = tested on: colon cancer cell line HT29; experiment: Combination therapy MTT assay; type: cell-based, human
Experimental: as §1
(§4) Samples according to Table 14 were also tested for proliferation inhibitor of three colon cancer lines HT29, HCT116 and colo205 by Compound A-Xln, anti-colon cancer agent 5FU/O, and combination of Compound A-Xln and 5FU/O. The results are shown in FIGS. 15-17.

[12] = tested on: colon cancer cell line colo205; experiment: Combination therapy MTT assay; type: cell-based, human
Experimental: as §1, §4

[13] = tested on: colon cancer cell line HCT116; experiment: Combination therapy MTT assay; type: cell-based, human
Experimental: as §1, §4

[14] = high temperature 60° C., 10 days
[15] = high temperature 60° C., 30 days

Q: With `COc1cc2c(Oc3ccc4[nH]c(C)cc4c3F)ccnc2cc1OCCN1CC(O)C2(CC2)C1` (stereo not shown) [Compound A-Xln, 5-(2-(4-(4-fluoro-2-methyl-1H-indol-5-yloxy)-6-methoxyquinolin-7-yloxy)ethyl)-5-azaspiro[2.4]-heptan-7-ol] as the compound, how does the “Mean tumor volume D0” value ([1]; 5 mg/kg/Qd i.g.) read?
A: 127.8 mm^3

Q: And the “Mean tumor volume D17” value ([1]; 5 mg/kg/Qd i.g.)?
A: 1625.3 mm^3

Q: What about the “T/C D17” value ([1]; 5 mg/kg/Qd i.g.) of the same compound?
A: 72.04%

Q: What about the “Mean tumor volume D0” value ([1]; 15 mg/kg/Qd i.g.) of the same compound?
A: 128.5 mm^3

Q: And the “Mean tumor volume D17” value ([1]; 15 mg/kg/Qd i.g.)?
A: 829.0 mm^3

Q: And the “T/C D17” value ([1]; 15 mg/kg/Qd i.g.)?
A: 36.67%

Q: And the “Efficacy of combination treatment with an anti-PD1 antibody agent” value ([1]; CT26 model, Compound A-Xln once daily plus anti-mouse PD-1 200 μg/mouse every 3 days)?
A: increased efficacy

Q: And the IC50 [2]?
A: 6.37 ± 2.56 µM

Q: And the “Proliferation inhibition in combination” value [3]?
A: increased

Q: What about the “Proliferation inhibition in combination” value [4] of the same compound?
A: increased

Q: What about the “Maximum impurities (%)” value ([5]; 0 day) of the same compound?
A: 0.032%

Q: What about the “Total impurities (%)” value ([5]; 0 day) of the same compound?
A: 0.078%

Q: What about the “Stability compared with the amorphous form” value ([5]; 60° C., up to 30 days) of the same compound?
A: better stability than A-Amp

Q: And the “Maximum impurities (%)” value [5, 14]?
A: 0.039%

Q: And the “Total impurities (%)” value [5, 14]?
A: 0.115%

Q: What about the “Maximum impurities (%)” value [5, 15] of the same compound?
A: 0.063%

Q: What about the “Total impurities (%)” value [5, 15] of the same compound?
A: 0.194%

Q: What about the IC50 [6] of the same compound?
A: 5.53 ± 2.78 µM

Q: And the IC50 [7]?
A: 12.2 ± 2 µM

Q: What about the IC50 [8] of the same compound?
A: 0.026 µM

Q: What about the IC50 [9] of the same compound?
A: 0.16 µM

Q: What about the IC50 [10] of the same compound?
A: 0.015 µM

Q: And the “Inhibition activity in sequential dosing” value ([11]; HT29, Compound A-Xln and 5FU/O dosed Day 1/Day 2 in either order)?
A: higher activity on regimen of dosing chemotherapy agents first followed by dosing Compound A later

Q: What about the “Proliferation inhibition in combination” value ([11]; HT29, combined with 5FU/O) of the same compound?
A: increased

Q: And the “Inhibition activity in sequential dosing” value ([12]; colo205, Compound A-Xln and 5FU/O dosed Day 1/Day 2 in either order)?
A: higher activity on regimen of dosing chemotherapy agents first followed by dosing Compound A later

Q: And the “Proliferation inhibition in combination” value ([12]; colo205, combined with 5FU/O)?
A: increased

Q: What about the “Inhibition activity in sequential dosing” value ([13]; HCT116, Compound A-Xln and 5FU/O dosed Day 1/Day 2 in either order) of the same compound?
A: higher activity on regimen of dosing chemotherapy agents first followed by dosing Compound A later

Q: What about the “Proliferation inhibition in combination” value ([13]; HCT116, combined with 5FU/O) of the same compound?
A: increased
